Measurements published in patent US20110003849A1, “SOLUBLE EPOXIDE HYDROLASE INHIBITORS, COMPOSITIONS CONTAINING SUCH COMPOUNDS AND METHODS OF TREATMENT” (priority 2008, published 2011).

Target: T1, human sEH enzyme (Homo sapiens, UniProt P34913)
T1 construct: His-tag (N, cleaved yes); made in house; host or cells: E. coli (pET100 vector)
T1 sequence (P34913 1-555): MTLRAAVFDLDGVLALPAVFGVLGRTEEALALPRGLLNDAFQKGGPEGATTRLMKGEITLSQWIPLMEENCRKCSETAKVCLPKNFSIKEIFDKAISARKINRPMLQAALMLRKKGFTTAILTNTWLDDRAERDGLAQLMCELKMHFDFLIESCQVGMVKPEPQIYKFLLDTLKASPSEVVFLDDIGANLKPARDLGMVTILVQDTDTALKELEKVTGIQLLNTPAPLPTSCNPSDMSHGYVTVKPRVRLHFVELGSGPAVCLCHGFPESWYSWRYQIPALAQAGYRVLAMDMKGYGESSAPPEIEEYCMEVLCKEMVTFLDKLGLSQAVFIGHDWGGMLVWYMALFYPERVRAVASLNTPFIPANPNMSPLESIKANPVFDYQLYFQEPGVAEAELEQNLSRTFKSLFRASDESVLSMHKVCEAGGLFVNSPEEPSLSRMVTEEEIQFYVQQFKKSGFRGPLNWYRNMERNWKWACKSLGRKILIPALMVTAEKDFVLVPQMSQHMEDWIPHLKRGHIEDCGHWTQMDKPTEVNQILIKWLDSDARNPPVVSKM
Test: sEH Human Enzyme Assay (fluorescence based enzyme in vitro assay)
Type: biochemical
Conditions: recombinant full length human sEH about 1 nM, fluorescence substrate S7 10 uM, pH7.0, 25° C.; read-out: IC50 [nM] for human sEH enzyme inhibition
Text: Preparation of Recombinant sEH Human Enzyme
The DNA for expressing sEH was designed based on a […] sEH cDNA, modified to optimize for expression both in E. coli and insect cells. The designed DNA fragment encodes a protein sequence that is identical to full length human sEH, and the DNA was synthesized in vitro. The DNA was then subcloned into the pET100 vector that will generate a fusion protein with an N-terminal His-tag. The recombinant protein was expressed in E. coli. The sEH enzyme was affinity purified by a Ni^++ column. His-tag was removed by Enter Kinase (EK) digestion. The purified enzyme aliquots were frozen and held at −80° C. for later use.
Fluorescence Based Enzyme In Vitro Assay,
For each assay (100 ul), an aliquot of enzymes (about 1 nM final concentration) was incubated with a fluorescence substrate, S7 (10 uM final concentration), in sEH assay buffer (25 mM HEPES, pH7.0, 0.1 mg/ml BSA) in a 96-well plate. The kinetic reaction reading (Ex330/Em465) was conducted using a plate reader, Spectra max (Molecular Devices) at 25° C.

| IC50 [nM] | SMILES |
| --- | --- |
| 7 | Cc1noc(C2CC3CC2N(C(=O)Nc2ccc(C(F)(F)F)cc2)C3)n1 (stereo not shown) [Example 1] |
| 2 | Cc1noc(C2CC3CCC2N(C(=O)Nc2ccc(C(F)(F)F)cc2)C3)n1 (stereo not shown) [Example 2] |
| 2 | Cc1noc(C2(C)CC3CCC2N(C(=O)Nc2ccc(C(F)(F)F)cc2)C3)n1 (stereo not shown) [Example 3] |
| 8 | CC(c1ccccc1)c1noc(C2CC3CCC2N(C(=O)Nc2ccc(C(F)(F)F)cc2)C3)n1 (stereo not shown) [Example 4] |
| 2 | CCc1noc(C2CC3CCC(C2)N3C(=O)Nc2ccc(C(F)(F)F)cc2)n1 (stereo not shown) [Example 5] |
| 1 | CN(C)c1noc(C2CC3CCC2N(C(=O)Nc2ccc(C(F)(F)F)cc2)C3)n1 (stereo not shown) [Example 6] |
| 2 | CCOc1noc(C2CC3CCC2N(C(=O)Nc2ccc(C(F)(F)F)cc2)C3)n1 (stereo not shown) [Example 7] |
| 1 | O=C(Nc1ccc(C(F)(F)F)cc1)N1CC2(c3ccccc3)CCC1CC2 [Example 9] |
| 1 | O=C(Nc1ccc(Cl)cc1)N1CC2(c3ccccc3)CCC1C2 (stereo not shown) [Example 10] |
| 51 | CN(C)c1noc(C2CC3CCC2N(C(=O)NC2CC2c2ccccc2)C3)n1 (stereo not shown) [Example 13] |
| 18 | O=C(NC1CC1c1ccccc1)N1CC2CCC1C(c1nc(C3CC3)no1)C2 (stereo not shown) [Example 14] |
| 14 | CCOc1noc(C2CC3CCC2N(C(=O)NC2CC2c2ccccc2)C3)n1 (stereo not shown) [Example 15] |
| 30 | Cc1noc(C2(C)CC3CCC2N(C(=O)NC2CC2c2ccccc2)C3)n1 (stereo not shown) [Example 16] |
| 48 | CCc1noc(C2CC3CC2N(C(=O)NC2CC2c2ccccc2)C3)n1 (stereo not shown) [Example 17] |
| 6 | O=C(NC1CC1c1ccccc1)N1CC2CCC1C(c1nc(C(c3ccccc3)c3ccccc3)no1)C2 (stereo not shown) [Example 18] |
| 4 | Cn1cc(-c2noc([C@@H]3C[C@H]4CC[C@H]3CN4C(=O)NC3CC3c3ccccc3)n2)c2ccccc21 (stereo partly shown) [Example 19] |
| 8 | Cn1cc(-c2noc(C3(C)CC4CCC3N(C(=O)NC3CC3c3ccccc3)C4)n2)c2ccccc21 (stereo not shown) [Example 20] |

| SMILES | IC50 [nM] |
| --- | --- |
| O=C(Nc1ccc(C(F)(F)F)cc1)N1C2CCC1C(c1cccnc1)C2 (stereo not shown) [Example 11] | 11 |
| O=C(Nc1ccc(C(F)(F)F)cc1)N1C2CCC1C(c1cccnc1)C2 (stereo not shown) [Example 12] | 41 |
